Where two headings read alike, the source gives them in different places.
Key:
TYK2 JH2 = target: T1, TYK2 JH2 (Homo sapiens, UniProt P29597); test: TYK2 JH2 binding assay (KINOMEscan KdELECT competitive binding); conditions: TYK2 JH2 domain
T1 construct: purchased DiscoverX (KINOMEscan KdELECT service); host or cells: E. coli BL21-derived (T7 phage display) or HEK-293
Method in brief: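 Competition binding, KdELECT format. Kinase (phage-tagged, E. coli BL21-derived host; or HEK-293, DNA-tagged) + ligand-coated streptavidin beads + cpd, 1 h RT, final DMSO 0.9%. Wash, elute 30 min with 0.5 μM non-biotinylated ligand; qPCR readout. Kd: 11-pt, 3-fold series.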

[1] = test system: JAK1/TYK2 pSTAT5 (Tyr694/699) in THP-1 cell line; test: IFNa-stimulated JAK1/TYK2 pSTAT5 (Tyr694/699) inhibition cellular assay, AlphaLISA; type: cell-based; conditions: Homo sapiens, THP-1 cells, AlphaLISA (Assay B)
Method in brief: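 THP-1, 2e4 cells/well, HBSS; cpd 1 h 37 °C (10000–0.04 nM final, 6-fold, 8 pt); IFNa 100 ng/mL added, 30 min; lyse, freeze −80 °C; pSTAT5 AlphaLISA, 615 nm; 4PL IC50, bottom fixed 0, slope −1.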

[2] = KINOMEscan KdELECT (Assay A), read-out: Biochemical TYK2_JH2_Kd
[3] = IFNa-stimulated, read-out: Cellular THP1_IFNa-pSTATS_IC50
[4] = KINOMEscan KdELECT (Assay A), read-out: Biochemical TYK2_DiscoverX_JH2_BND_Kd
[5] = IFNa-stimulated, read-out: Cellular_THP1_IFNa-pSTATS_TYK2
[6] = IFNa-stimulated pSTAT5 (Tyr694/699), read-out: Cellular_THP1_IFNa-pSTATS_TYK2
[7] = DiscoverX KINOMEscan KdELECT (Assay A), read-out: Biochemical TYK2_DiscoverX_JH2_BND_Kd

T1 sequence (P29597 589-875 limits assumed): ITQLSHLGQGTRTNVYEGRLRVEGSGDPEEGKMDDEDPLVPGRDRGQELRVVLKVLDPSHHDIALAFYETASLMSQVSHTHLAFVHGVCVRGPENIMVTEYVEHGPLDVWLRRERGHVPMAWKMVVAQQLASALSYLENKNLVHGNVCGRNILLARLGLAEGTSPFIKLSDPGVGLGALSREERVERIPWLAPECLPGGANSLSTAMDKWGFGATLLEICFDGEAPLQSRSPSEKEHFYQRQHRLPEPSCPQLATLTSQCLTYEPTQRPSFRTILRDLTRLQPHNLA

SMILES | Kd (TYK2 JH2; [4]) [µM] | IC50 [1, 5] [µM] | also measured
CNc1ncc(-c2ccc(C)s2)c2cc(NC(=O)C3CC3)ncc12 [Example 22, N-(8-(methylamino)-5-(5-methylthiophen-2-yl)-2,7-naphthyridin-3-yl)cyclopropanecarboxamide] | – | – | Kd (TYK2 JH2; [2]): ≤ 0.1 µM; IC50 [1, 3]: > 0.5 µM
CNc1ncc(C#Cc2cc3c(cc2C)nnn3C)c2cc(NC(=O)C3CC3)ncc12 [Example 700, N-(5-((1,5-dimethyl-1H-benzo[d][1,2,3]triazol-6-yl)ethynyl)-8-(methylamino)-2,7-naphthyridin-3-yl)cyclopropanecarboxamide] | ≤ 0.1 | ≤ 0.5 | –
CNc1ncc(-c2nc3cc(N4C[C@@H](C)O[C@@H](C)C4)ccc3o2)c2cc(NC(=O)[C@H]3C[C@H]3C)ncc12 [Example 1063, (1S,2R)-N-[5-[5-[(2R,6S)-2,6-dimethylmorpholin-4-yl]-1,3-benzoxazol-2-yl]-8-(methylamino)-2,7-naphthyridin-3-yl]-2-methyl-cyclopropanecarboxamide] | ≤ 0.1 | – | IC50 [1, 6]: ≤ 0.5 µM
CNc1ncc(C#Cc2ccc3oc(C)nc3c2)c2cc(NC(=O)C3CC3)ncc12 [Example 801, N-(8-(methylamino)-5-((2-methylbenzo[d]oxazol-5-yl)ethynyl)-2,7-naphthyridin-3-yl)cyclopropanecarboxamide] | ≤ 0.1 | ≤ 0.5 | –
CCc1cc2cc(NC(=O)C3CC3)ncc2c(NC)n1 [Example 165, N-(6-ethyl-8-(methylamino)-2,7-naphthyridin-3-yl)cyclopropanecarboxamide] | – | – | Kd (TYK2 JH2; [2]): ≤ 0.1 µM; IC50 [1, 3]: > 0.5 µM
CNc1ncc(-c2cn3cc(OC)ccc3n2)c2cc(NC(=O)C3CC3)ncc12 [Example 879, N-(5-(6-methoxyimidazo[1,2-a]pyridin-2-yl)-8-(methylamino)-2,7-naphthyridin-3-yl)cyclopropanecarboxamide] | ≤ 0.1 | ≤ 0.5 | –
CNc1ncc(-c2ccc(C3CC3)cc2)c2cc(NC(=O)C3CC3)ncc12 [Example 113, N-(5-(4-cyclopropylphenyl)-8-(methylamino)-2,7-naphthyridin-3-yl)cyclopropanecarboxamide] | – | – | Kd (TYK2 JH2; [2]): ≤ 0.1 µM; IC50 [1, 3]: > 0.5 µM
CNc1ncc(C2=CCC(c3nc[nH]n3)C2)c2cc(NC(=O)C3CC3)ncc12 (centres unmarked) [Example 833, N-(5-(4-(1H-1,2,4-triazol-3-yl)cyclopent-1-en-1-yl)-8-(methylamino)-2,7-naphthyridin-3-yl)cyclopropanecarboxamide] | ≤ 0.1 | > 0.5 | –
CNc1ncc(-c2ccc(C(=O)N(C)C)cc2)c2cc(NC(=O)C3CC3)ncc12 [Example 170, 4-(6-(cyclopropanecarboxamido)-1-(methylamino)-2,7-naphthyridin-4-yl)-N,N-dimethylbenzamide] | – | – | Kd (TYK2 JH2; [2]): ≤ 0.1 µM; IC50 [1, 3]: ≤ 0.5 µM
CNc1ncc(-c2nc3cc(N4CCOC(COC)C4)ccc3o2)c2cc(NC(=O)C3CC3)ncc12 (centres unmarked) [Example 918, N-(5-(5-(2-(methoxymethyl)morpholino)benzo[d]oxazol-2-yl)-8-(methylamino)-2,7-naphthyridin-3-yl)cyclopropanecarboxamide] | ≤ 0.1 | ≤ 0.5 | –
CNc1ncc(C#Cc2cn(C)c(C)n2)c2cc(NC(=O)C3CC3)ncc12 [Example 1003, N-(5-((1,2-dimethyl-1H-imidazol-4-yl)ethynyl)-8-(methylamino)-2,7-naphthyridin-3-yl)cyclopropanecarboxamide] | ≤ 0.1 | – | IC50 [1, 6]: ≤ 0.5 µM
CNc1ncc(-c2nc3ccccc3o2)c2cc(NC(=O)C(C)C)ncc12 [Example 429, N-(5-(benzo[d]oxazol-2-yl)-8-(methylamino)-2,7-naphthyridin-3-yl)isobutyramide] | – | > 0.5 | Kd (TYK2 JH2; [7]): ≤ 0.1 µM
CNc1ncc(-c2nc3ccc(C(F)F)cn3n2)c2cc(NC(=O)C3CC3)ncc12 [Example 1040] | ≤ 0.1 | – | IC50 [1, 6]: ≤ 0.5 µM
CNc1ncc(-c2nc3ccc(C)cn3n2)c2cc(NC(=O)C3CCC3)ncc12 [Example 561, N-(5-(6-methyl-[1,2,4]triazolo[1,5-a]pyridin-2-yl)-8-(methylamino)-2,7-naphthyridin-3-yl)cyclobutanecarboxamide] | – | ≤ 0.5 | Kd (TYK2 JH2; [7]): ≤ 0.1 µM
CNc1ncc(-c2cccc(F)c2)c2cc(NC(=O)C3CC3)ncc12 [Example 116, N-(5-(3-fluorophenyl)-8-(methylamino)-2,7-naphthyridin-3-yl)cyclopropanecarboxamide] | – | – | Kd (TYK2 JH2; [2]): ≤ 0.1 µM; IC50 [1, 3]: > 0.5 µM
CNc1ncc(C#Cc2ccnc(Cl)c2)c2cc(NC(=O)C3CC3)ncc12 [Example 992, N-[5-[2-(2-chloro-4-pyridyl)ethynyl]-8-(methylamino)-2,7-naphthyridin-3-yl]cyclopropanecarboxamide] | ≤ 0.1 | ≤ 0.5 | –
CNc1ncc(C23CC(C2)C3)c2cc(NC(=O)C3CC3)ncc12 [Example 844, N-(5-(bicyclo[1.1.1]pentan-1-yl)-8-(methylamino)-2,7-naphthyridin-3-yl)cyclopropanecarboxamide] | ≤ 0.1 | > 0.5 | –
CNc1ncc(-c2cccc(-c3ncn(C)n3)c2)c2cc(NC(=O)C3CC3)ncc12 [Example 53, N-(5-(3-(1-methyl-1H-1,2,4-triazol-3-yl)phenyl)-8-(methylamino)-2,7-naphthyridin-3-yl)cyclopropanecarboxamide] | – | – | Kd (TYK2 JH2; [2]): ≤ 0.1 µM; IC50 [1, 3]: > 0.5 µM
C=C1COCCN(c2ccc3oc(-c4cnc(NC)c5cnc(NC(=O)C6CC6)cc45)nc3c2)C1 [Example 334, N-(8-(methylamino)-5-(5-(6-methylene-1,4-oxazepan-4-yl)benzo[d]oxazol-2-yl)-2,7-naphthyridin-3-yl)cyclopropanecarboxamide] | – | ≤ 0.5 | Kd (TYK2 JH2; [7]): ≤ 0.1 µM
CNc1ncc(-c2nc3cc(CC#N)ccc3o2)c2cc(NC(=O)C3CC3)ncc12 [Example 245, N-(5-(5-(cyanomethyl)benzo[d]oxazol-2-yl)-8-(methylamino)-2,7-naphthyridin-3-yl)cyclopropanecarboxamide] | – | ≤ 0.5 | Kd (TYK2 JH2; [7]): ≤ 0.1 µM

Continued, in another order:

Kd (TYK2 JH2; [4]) [µM] | IC50 [1, 5] [µM] | SMILES | also measured
≤ 0.1 | ≤ 0.5 | CNc1ncc(C#Cc2ccc(C(F)F)cn2)c2cc(NC(=O)C3CC3)ncc12 [Example 658] | –
≤ 0.1 | ≤ 0.5 | CNc1ncc(C#Cc2cc(F)c(OC)cn2)c2cc(NC(=O)C3CC3)ncc12 [Example 718, N-(5-((4-fluoro-5-methoxypyridin-2-yl)ethynyl)-8-(methylamino)-2,7-naphthyridin-3-yl)cyclopropanecarboxamide] | –
– | ≤ 0.5 | CNc1ncc(-c2nc3cc(N4CCO[C@@H](C)C4)ccc3o2)c2cc(NC(=O)[C@H]3C[C@H]3C(F)F)ncc12 (single isomer, unassigned) [Example 414] | Kd (TYK2 JH2; [7]): ≤ 0.1 µM
≤ 0.1 | > 0.5 | CCNc1ncc(-c2ccccc2)c2cc(NC(=O)C3CC3)ncc12 [Example 846, N-(8-(ethylamino)-5-phenyl-2,7-naphthyridin-3-yl)cyclopropanecarboxamide] | –
≤ 0.1 | > 0.5 | C=C(c1ccc(N2CCOCC2)cc1)c1cnc(NC)c2cnc(NC(=O)C3CC3)cc12 [Example 793, N-(8-(methylamino)-5-(1-(4-morpholinophenyl)vinyl)-2,7-naphthyridin-3-yl)cyclopropanecarboxamide] | –
≤ 0.1 | ≤ 0.5 | CNc1ncc(C#Cc2ccn3cnnc3c2)c2cc(NC(=O)C3CC3)ncc12 [Example 607, N-(5-([1,2,4]triazolo[4,3-a]pyridin-7-ylethynyl)-8-(methylamino)-2,7-naphthyridin-3-yl)cyclopropanecarboxamide] | –
≤ 0.1 | ≤ 0.5 | CNc1ncc(C#Cc2ccc(P(C)(C)=O)cn2)c2cc(NC(=O)C3CC3)ncc12 [Example 738, N-(5-((5-(dimethylphosphoryl)pyridin-2-yl)ethynyl)-8-(methylamino)-2,7-naphthyridin-3-yl)cyclopropanecarboxamide] | –
– | ≤ 0.5 | CNc1ncc(-c2nc3cccc(Cc4cocn4)c3o2)c2cc(NC(=O)C3CC3)ncc12 [Example 271, N-(8-(methylamino)-5-(7-(oxazol-4-ylmethyl)benzo[d]oxazol-2-yl)-2,7-naphthyridin-3-yl)cyclopropanecarboxamide] | Kd (TYK2 JH2; [7]): ≤ 0.1 µM
≤ 0.1 | ≤ 0.5 | CNc1ncc(C#Cc2ncc(OC)cc2C(F)F)c2cc(NC(=O)C3CC3)ncc12 [Example 976, N-(5-((3-(difluoromethyl)-5-methoxypyridin-2-yl)ethynyl)-8-(methylamino)-2,7-naphthyridin-3-yl)cyclopropanecarboxamide] | –
≤ 0.1 | – | CNc1ncc(C#Cc2cn(C)nn2)c2cc(NC(=O)C3CC3)ncc12 [Example 1007, N-[8-(methylamino)-5-[2-(1-methyltriazol-4-yl)ethynyl]-2,7-naphthyridin-3-yl]cyclopropanecarboxamide] | IC50 [1, 6]: ≤ 0.5 µM
≤ 0.1 | ≤ 0.5 | CNc1ncc(-c2nc3ccc(OC)cc3s2)c2cc(NC(=O)C3CC3)ncc12 [Example 933, N-(5-(6-methoxybenzo[d]thiazol-2-yl)-8-(methylamino)-2,7-naphthyridin-3-yl)cyclopropanecarboxamide] | –

— patent publication US20240025906A1 (NEURON23, INC., priority 2022, published 2024)
